According to patent US10287301B2 (Achillion Pharmaceuticals, Inc., priority 2015, dated 2019):
Where two headings read alike, the source gives them in different places.

Biological target: Human Factor D (Homo sapiens (Human), UniProt P00746)
Experiment: Human Factor D Assay
Format: biochemical
Method in brief: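 Thioesterase activity monitored with Z-L-Lys-SBzl plus Ellman's reagent (DTNB), each 100 μM final, after 5 min room-temperature compound preincubation of 80 nM human serum Factor D in pH 7.5 Tris (50 mM)/1M NaCl.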

[1] = Human Factor D, Table 3, read-out: IC50
[2] = Human Factor D 80 nM, substrate Z-L-Lys-SBzl, read-out: IC50
[3] = Table 3, Human Factor D 80 nM, substrate Z-L-Lys-SBzl, read-out: IC50 (Stars)
[4] = Human Factor D assay of Example 8, Table 2, read-out: IC50

Sequence of Human Factor D (P00746 26-253): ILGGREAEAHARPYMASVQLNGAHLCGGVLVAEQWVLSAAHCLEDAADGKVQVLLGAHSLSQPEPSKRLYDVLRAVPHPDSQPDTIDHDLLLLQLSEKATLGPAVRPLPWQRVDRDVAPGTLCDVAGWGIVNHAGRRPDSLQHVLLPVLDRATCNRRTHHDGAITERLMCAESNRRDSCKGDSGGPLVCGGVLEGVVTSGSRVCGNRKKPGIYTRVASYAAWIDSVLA

## CC(=O)c1nn(CC(=O)N2C[C@H](F)C[C@H]2C(=O)Nc2cccc(Br)n2)c2c(C)cc(-c3cnc(C)nc3)cc12 [Compound 608, (2S,4R)-1-(2-(3-Acetyl-7-methyl-5-(2-methylpyrimidin-5-yl)-1H-indazol-1-yl)acetyl)-N-(6-bromopyridin-2-yl)-4-fluoropyrrolidine-2-carboxamide]
[1]
  IC50: < 1000 nM

## Cc1ncc(-c2ccc3c(c2)c([C@@H](C)O)nn3CC(=O)N2C[C@H](F)C[C@H]2C(=O)Nc2cccc(Br)n2)cn1 [Compound 426, (2S,4R)—N-(6-Bromopyridin-2-yl)-4-fluoro-1-(2-(3-((R)-1-hydroxyethyl)-5-(2-methylpyrimidin-5-yl)-1H-indazol-1-yl)acetyl)pyrrolidine-2-carboxamide]
  IC50: 1000 to 10000 nM

## CC(=O)c1cn(CC(=O)N2C[C@H](F)C[C@H]2C(=O)NC2CCCN(c3cnn(C)c3)C2)c2ccc(-c3ccnnc3)cc12 (stereo partly drawn) [Compound 140, (2S,4R)-1-(2-(3-acetyl-5-(pyridazin-4-yl)-1H-indol-1-yl)acetyl)-4-fluoro-N-(1-(1-methyl-1H-pyrazol-4-yl)piperidin-3-yl)pyrrolidine-2-carboxamide]
  IC50: 1000 to 10000 nM

## NC(=O)c1nn(CC(=O)N2[C@@H]3C[C@@H]3C[C@H]2C(=O)Nc2cccc(OC(F)(F)F)c2F)c2ccc(-c3cncnc3)cc12 [Compound 8, 1-(2-((1R,3S,5R)-3-(2-fluoro-3-(trifluoromethoxy)phenylcarbamoyl)-2-azabicyclo[3.1.0]hexan-2-yl)-2-oxoethyl)-5-(pyrimidin-5-yl)-1H-indazole-3-carboxamide]
[2]
  IC50: < 1000 nM

## COc1cc(Br)nc(NC(=O)[C@@H]2C[C@H]3C[C@H]3N2C(=O)Cn2nc(C(C)=O)c3cc(-c4cnc(N)nc4)ccc32)c1 [Compound 434, (1R,3S,5R)-2-(2-(3-Acetyl-5-(2-aminopyrimidin-5-yl)-1H-indazol-1-yl)acetyl)-N-(6-bromo-4-methoxypyridin-2-yl)-2-azabicyclo[3.1.0]hexane-3-carboxamide]
[3]
  IC50: < 1000 nM

## CC(=O)c1nn(CC(=O)N2C[C@H](F)C[C@H]2C(=O)Nc2cccc(Br)c2Cl)c2ccc(-c3cnc(C)nc3)cc12 [Compound 358, (2S,4R)-1-(2-(3-Acetyl-5-(2-methylpyrimidin-5-yl)-1H-indazol-1-yl)acetyl)-N-(3-bromo-2-chlorophenyl)-4-fluoropyrrolidine-2-carboxamide]
[3]
  IC50: < 1000 nM

## CC(=O)c1nn(CC(=O)N2C[C@H](F)C[C@H]2C(=O)Nc2nc(Br)ccc2C)c2ccc(-c3cnc(N)nc3)cc12 [Compound 435, (2S,4R)-1-(2-(3-Acetyl-5-(2-aminopyrimidin-5-yl)-1H-indazol-1-yl)acetyl)-N-(6-bromo-3-methylpyridin-2-yl)-4-fluoropyrrolidine-2-carboxamide]
[3]
  IC50: < 1000 nM

## CC(=O)c1cn(CC(=O)N2N=CCC2C(=O)Nc2cccc(-c3ccccc3Cl)c2F)c2ccc(-c3cnc(C)nc3)cc12 (stereo not shown) [Compound 221, 1-(2-(3-acetyl-5-(2-methylpyrimidin-5-yl)-1H-indol-1-yl)acetyl)-N-(2′-chloro-2-fluorobiphenyl-3-yl)-4,5-dihydro-1H-pyrazole-5-carboxamide]
[4]
  IC50: < 1000 nM

## CC(=O)c1nn(CC(=O)N2C[C@H](F)C[C@H]2C(=O)Nc2cccc(OC(F)F)c2F)c2ccc(-c3cnc4cc(C)nn4c3)cc12 [Compound 281, (2S,4R)-1-(2-(3-acetyl-5-(2-methylpyrazolo[1,5-a]pyrimidin-6-yl)-1H-indazol-1-yl)acetyl)-N-(3-(difluoromethoxy)-2-fluorophenyl)-4-fluoropyrrolidine-2-carboxamide]
[4]
  IC50: < 1000 nM

## CC(=O)c1nn(CC(=O)N2C[C@@](F)(CF)C[C@H]2C(=O)Nc2cccc(Br)n2)c2ccc(-c3cnc(C)nc3)cc12 [Compound 415, (2S,4R)-1-(2-(3-Acetyl-5-(2-methylpyrimidin-5-yl)-1H-indazol-1-yl)acetyl)-N-(6-bromopyridin-2-yl)-4-fluoro-4-(fluoromethyl)pyrrolidine-2-carboxamide]
[3]
  IC50: < 1000 nM

## COc1ncc(-c2ccc3c(c2)c(C(C)=O)cn3CC(=O)N2[C@@H]3C[C@@H]3C[C@H]2C(=O)Nc2cccc(-c3ccccc3Cl)c2F)cn1 [Compound 80, (1R,3S,5R)-2-(2-(3-acetyl-5-(2-methoxypyrimidin-5-yl)-1H-indol-1-yl)acetyl)-N-(2′-chloro-2-fluorobiphenyl-3-yl)-2-azabicyclo[3.1.0] hexane-3-carboxamide]
[2]
  IC50: < 1000 nM

## CC(=O)c1nn(CC(=O)N2C[C@H](F)C[C@H]2C(=O)Nc2cccc(Br)n2)c2ccc(-c3cnc(C(C)C)nc3)cc12 [Compound 567, (2S,4R)-1-(2-(3-Acetyl-5-(2-isopropylpyrimidin-5-yl)-1H-indazol-1-yl)acetyl)-N-(6-bromopyridin-2-yl)-4-fluoropyrrolidine-2-carboxamide]
[1]
  IC50: < 1000 nM

## CC(=O)c1nn(CC(=O)N2C3CC3(CN)C[C@H]2C(=O)Nc2cccc(Br)n2)c2ccc(-c3cnc(C)nc3)cc12 (stereo partly drawn) [Compound 454, (3S)-2-(2-(3-Acetyl-5-(2-methylpyrimidin-5-yl)-1H-indazol-1-yl)acetyl)-5-(aminomethyl)-N-(6-bromopyridin-2-yl)-2-azabicyclo[3.1.0]hexane-3-carboxamide]
[3]
  IC50: < 1000 nM

## Cc1ncc(-c2ccc3c(c2)c(CC(N)=O)nn3CC(=O)N2C[C@H](F)C[C@H]2C(=O)Nc2cccc(Br)n2)cn1 [Compound 340, (2S,4R)-1-(2-(3-(2-amino-2-oxoethyl)-5-(2-methylpyrimidin-5-yl)-1H-indazol-1-yl)acetyl)-N-(6-bromopyridin-2-yl)-4-fluoropyrrolidine-2-carboxamide]
[3]
  IC50: 1000 to 10000 nM

## CC(=O)c1nn(CC(=O)N2C[C@H](F)C[C@H]2C(=O)Nc2nc(OCC(F)(F)F)ccc2C)c2ccc(-c3cnc(C)nc3)cc12 [Compound 601, (2S,4R)-1-(2-(3-Acetyl-5-(2-methylpyrimidin-5-yl)-1H-indazol-1-yl)acetyl)-4-fluoro-N-(3-methyl-6-(2,2,2-trifluoroethoxy)pyridin-2-yl)pyrrolidine-2-carboxamide]
[1]
  IC50: < 1000 nM

## CC(=O)c1cn(CC(=O)N2C[C@H](F)C[C@H]2C(=O)Nc2cc(C)nc3nc(C(F)(F)F)nn23)c2ccc(-c3ccnnc3)cc12 [Compound 97, (2S,4R)-1-(2-(3-acetyl-5-(pyridazin-4-yl)-1H-indol-1-yl)acetyl)-4-fluoro-N-(5-methyl-2-(trifluoromethyl)-[1,2,4]triazolo[1,5-a]pyrimidin-7-yl)pyrrolidine-2-carboxamide]
[2]
  IC50: > 10000 nM

## Cc1cc(NC(=O)[C@@H]2C[C@@H](F)CN2C(=O)Cn2nc(C(N)=O)c3cc(-c4ccnnc4)ccc32)n(-c2ccccc2F)n1 [Compound 158, 1-(2-((2S,4R)-4-fluoro-2-(1-(2-fluorophenyl)-3-methyl-1H-pyrazol-5-ylcarbamoyl)pyrrolidin-1-yl)-2-oxoethyl)-5-(pyridazin-4-yl)-1H-indazole-3-carboxamide]
[2]
  IC50: > 10000 nM

## COCCN(C)CCN1CC(NC(=O)[C@@H]2C[C@@H](F)CN2C(=O)Cn2nc(C(C)=O)c3cc(-c4cnc(C)nc4)ccc32)CC1=O (stereo partly drawn) [Compound 254, (2S,4R)-1-(2-(3-acetyl-5-(2-methylpyrimidin-5-yl)-1H-indazol-1-yl)acetyl)-4-fluoro-N-(1-(2-((2-methoxyethyl)(methyl)amino)ethyl)-5-oxopyrrolidin-3-yl)pyrrolidine-2-carboxamide]
[4]
  IC50: > 10000 nM

## COc1cc(Br)nc(NC(=O)[C@@H]2C[C@H]3C[C@H]3N2C(=O)Cn2nc(C(C)=O)c3cc(-c4cnc(OC)nc4)ccc32)c1 [Compound 433, (1R,3S,5R)-2-(2-(3-Acetyl-5-(2-methoxypyrimidin-5-yl)-1H-indazol-1-yl)acetyl)-N-(6-bromo-4-methoxypyridin-2-yl)-2-azabicyclo[3.1.0]hexane-3-carboxamide]
[3]
  IC50: < 1000 nM

## CC(=O)c1cn(CC(=O)N2C[C@H](F)C[C@H]2C(=O)Nc2cccc(-c3ncccc3Cl)c2F)c2ccc(-c3cnc(C)nc3)cc12 [Compound 164, (2S,4R)-1-(2-(3-acetyl-5-(2-methylpyrimidin-5-yl)-1H-indol-1-yl)acetyl)-N-(3-(3-chloropyridin-2-yl)-2-fluorophenyl)-4-fluoropyrrolidine-2-carboxamide]
[2]
  IC50: < 1000 nM

## CC(=O)n1cc(NC(=O)N2C[C@H](F)C[C@H]2C(=O)Nc2cccc(Br)n2)c2ccc(-c3cnc(C)nc3)cc21 [Compound 292, (2S,4R)-N1-(1-acetyl-6-(2-methylpyrimidin-5-yl)-1H-indol-3-yl)-N2-(6-bromopyridin-2-yl)-4-fluoropyrrolidine-1,2-dicarboxamide]
[4]
  IC50: < 1000 nM

## CC(=O)c1nn(CC(=O)N2[C@H]3C[C@@]3(CO)C[C@H]2C(=O)Nc2cccc(Br)n2)c2ccc(-c3cnc(C)nc3)cc12 [Compound 383, (1S,3S,5R)-2-(2-(3-Acetyl-5-(2-methylpyrimidin-5-yl)-1H-indazol-1-yl)acetyl)-N-(6-bromopyridin-2-yl)-5-(hydroxymethyl)-2-azabicyclo[3.1.0]hexane-3-carboxamide]
[3]
  IC50: < 1000 nM

## COC(=O)c1ncc(-c2ccc3c(c2)c(C(C)=O)nn3CC(=O)N2C[C@H](F)C[C@H]2C(=O)Nc2cccc(Br)n2)cn1 [Compound 596, methyl 5-(3-Acetyl-1-(2-((2S,4R)-2-((6-bromopyridin-2-yl)carbamoyl)-4-fluoropyrrolidin-1-yl)-2-oxoethyl)-1H-indazol-5-yl)pyrimidine-2-carboxylate]
[1]
  IC50: < 1000 nM

## Cc1ncc(-c2ccc3c(c2)c(C(N)=O)cn3CC(=O)N2C[C@H](F)C[C@H]2C(=O)Nc2cccc(Br)n2)cn1 [Compound 307, 1-(2-((2S,4R)-2-(6-bromopyridin-2-ylcarbamoyl)-4-fluoropyrrolidin-1-yl)-2-oxoethyl)-5-(2-methylpyrimidin-5-yl)-1H-indole-3-carboxamide]
[4]
  IC50: < 1000 nM

## CC(=O)c1nn(CC(=O)N2C[C@H](F)C[C@H]2C(=O)Nc2cccc(Br)n2)c2ccc(-c3cnc4cc(C(C)C)nn4c3)cc12 [Compound 274, (2S,4R)-1-(2-(3-acetyl-5-(2-isopropylpyrazolo [1,5-a]pyrimidin-6-yl)-1H-indazol-1-yl)acetyl)-N-(6-bromopyridin-2-yl)-4-fluoropyrrolidine-2-carboxamide]
[4]
  IC50: < 1000 nM
